The supplement of paper PMC10307832

How the values were obtained:
Experiment in all cases: relative viability (nuclei count vs DMSO), 5 days (fraction); higher = more cells survive
[1] = test system: A-427
Method in brief: (§1)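 Lung cancer cell lines were pin-tool dosed in 1536-well plates on the day after seeding, with either a lone drug or a fixed anchor-drug dose plus five library-drug doses (not always all listed) in √10 steps. Nuclei were counted on 4× images after 5 days. Relative viability is the ratio of treated-well to vehicle-well nuclei counts, with each value a median of duplicate plates.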

[2] = test system: ABC-1
Method in brief: as §1

[3] = test system: EMC-BAC-2
Method in brief: as §1

[4] = test system: HARA
Method in brief: as §1

[5] = test system: HOP-62
Method in brief: as §1

[6] = test system: LK-2
Method in brief: as §1

[7] = test system: LXF-289
Method in brief: as §1

[8] = test system: NCI-H1792
Method in brief: as §1

[9] = test system: NCI-H1944
Method in brief: as §1

[10] = test system: NCI-H1993
Method in brief: as §1

[11] = test system: NCI-H2170
Method in brief: as §1

[12] = test system: NCI-H3122
Method in brief: as §1

[13] = test system: NCI-H322M
Method in brief: as §1

[14] = test system: NCI-H522
Method in brief: as §1

[15] = test system: NCI-H596
Method in brief: as §1

[16] = test system: NCI-H727
Method in brief: as §1

[17] = test system: PC-3 [JPC-3]
Method in brief: as §1

[18] = test system: SW 900
Method in brief: as §1

Work on `COc1nc(C)cnc1NS(=O)(=O)c1cccnc1-c1ccc(-c2nnco2)cc1` [Zibotentan] + NC(=O)Nc1cc(-c2cccc(F)c2)sc1C(=O)N[C@H]1CCCNC1 [AZD7762] (partner 0.2 µM) yielded a relative viability ([1]; first compound 0.08 µM) of 0.905, a relative viability ([1]; first compound 0.253 µM) of 0.666 and a relative viability ([1]; first compound 0.8 µM) of 0.655. For the same molecule, the relative viability ([1]; first compound 2.53 µM) was 0.834, the relative viability ([2]; first compound 0.08 µM) was 0.711 and the relative viability ([2]; first compound 0.253 µM) was 0.86. For the same molecule, the relative viability ([2]; first compound 0.8 µM) was 0.765, the relative viability ([2]; first compound 2.53 µM) was 0.843 and the relative viability ([3]; first compound 0.08 µM) was 1.08. The relative viability ([3]; first compound 0.8 µM) was 1.08, the relative viability ([3]; first compound 2.53 µM) was 1.16 and the relative viability ([4]; first compound 0.08 µM) was 0.254. The relative viability ([4]; first compound 0.8 µM) was 0.302, the relative viability ([4]; first compound 2.53 µM) was 0.416 and the relative viability ([5]; first compound 0.08 µM) was 0.593. The relative viability ([5]; first compound 0.253 µM) was 0.63, the relative viability ([5]; first compound 0.8 µM) was 0.479 and the relative viability ([5]; first compound 2.53 µM) was 0.615. For the same molecule, the relative viability ([6]; first compound 0.08 µM) was 0.479, the relative viability ([6]; first compound 0.253 µM) was 0.327 and the relative viability ([6]; first compound 0.8 µM) was 0.441. It also gave a relative viability ([6]; first compound 2.53 µM) of 0.282, a relative viability ([7]; first compound 0.08 µM) of 1.07 and a relative viability ([7]; first compound 0.253 µM) of 1.05. The relative viability ([7]; first compound 0.8 µM) was 1.06, the relative viability ([7]; first compound 2.53 µM) was 1.08 and the relative viability ([8]; first compound 0.08 µM) was 0.899. For the same molecule, the relative viability ([8]; first compound 0.253 µM) was 0.604, the relative viability ([8]; first compound 0.8 µM) was 0.373 and the relative viability ([8]; first compound 2.53 µM) was 0.822. It also gave a relative viability ([9]; first compound 0.08 µM) of 0.561, a relative viability ([9]; first compound 0.253 µM) of 0.487 and a relative viability ([9]; first compound 0.8 µM) of 0.249. For the same molecule, the relative viability ([9]; first compound 2.53 µM) was 0.548, the relative viability ([10]; first compound 0.08 µM) was 0.667 and the relative viability ([10]; first compound 0.253 µM) was 0.778. For the same molecule, the relative viability ([10]; first compound 0.8 µM) was 0.728, the relative viability ([10]; first compound 2.53 µM) was 0.881 and the relative viability ([11]; first compound 0.08 µM) was 0.979. For the same molecule, the relative viability ([11]; first compound 0.253 µM) was 0.881, the relative viability ([11]; first compound 0.8 µM) was 0.675 and the relative viability ([11]; first compound 2.53 µM) was 0.881. The relative viability ([12]; first compound 0.08 µM) was 1.01, the relative viability ([12]; first compound 0.253 µM) was 0.999 and the relative viability ([12]; first compound 0.8 µM) was 0.915. The relative viability ([12]; first compound 2.53 µM) was 0.966, the relative viability ([13]; first compound 0.08 µM) was 0.605 and the relative viability ([13]; first compound 0.253 µM) was 0.551. It also gave a relative viability ([13]; first compound 0.8 µM) of 0.364, a relative viability ([13]; first compound 2.53 µM) of 0.605 and a relative viability ([14]; first compound 0.08 µM) of 0.835. For the same molecule, the relative viability ([14]; first compound 0.253 µM) was 0.862, the relative viability ([14]; first compound 0.8 µM) was 0.773 and the relative viability ([14]; first compound 2.53 µM) was 0.856. For the same molecule, the relative viability ([15]; first compound 0.08 µM) was 1.13, the relative viability ([15]; first compound 0.253 µM) was 1.01 and the relative viability ([15]; first compound 0.8 µM) was 1.06. The relative viability ([15]; first compound 2.53 µM) was 1.22, the relative viability ([16]; first compound 0.08 µM) was 0.575 and the relative viability ([16]; first compound 0.253 µM) was 0.572. For the same molecule, the relative viability ([16]; first compound 0.8 µM) was 0.497, the relative viability ([16]; first compound 2.53 µM) was 0.296 and the relative viability ([17]; first compound 0.08 µM) was 0.711. For the same molecule, the relative viability ([17]; first compound 0.253 µM) was 0.654, the relative viability ([17]; first compound 0.8 µM) was 0.733 and the relative viability ([17]; first compound 2.53 µM) was 0.861. For the same molecule, the relative viability ([18]; first compound 0.08 µM) was 0.68, the relative viability ([18]; first compound 0.253 µM) was 0.561 and the relative viability ([18]; first compound 0.8 µM) was 0.495. It also gave a relative viability ([18]; first compound 2.53 µM) of 0.725.
